Reference: patent US12667098B2, “Ready to use plant treatment agent applicator, container and product” (UPL Corporation Limited, priority 2022, dated 2026)

Assays:
Format in all cases: in vivo
Conditions in all cases: 3 L/ha of glufosinate ammonium 18.5%
Field horsetail = experiment: Weed control efficacy of glufosinate applied with the applicator: field horsetail
From the text: (§1) The rate of application was 3 L/ha of glufosinate ammonium 18.5%.

Water foxtail = experiment: Weed control efficacy of glufosinate applied with the applicator: water foxtail
From the text: as §1

Barnyard grass = experiment: Weed control efficacy of glufosinate applied with the applicator: barnyard grass
From the text: as §1

Crabgrass = experiment: Weed control efficacy of glufosinate applied with the applicator: crabgrass
From the text: as §1

Broadleaf dock = experiment: Weed control efficacy of glufosinate applied with the applicator: broadleaf dock
From the text: as §1

[1] = 0.36% applied at 15 ml/m^2, applicator of the disclosure
[2] = 0.56% applied at 10 ml/m^2, applicator of the disclosure

SMILES: CP(=O)(O)CCC(N)C(=O)O (racemic) [glufosinate, glufosinate ammonium]
- Control %: Max weed efficacy (Field horsetail; [1]): 76%
- Control %: Max weed efficacy (Field horsetail; [2]): 73%
- Control %: Max weed efficacy (Water foxtail; [1]): 96%
- Control %: Max weed efficacy (Water foxtail; [2]): 92%
- Control %: Max weed efficacy (Barnyard grass; [1]): 59%
- Control %: Max weed efficacy (Barnyard grass; [2]): 55%
- Control %: Max weed efficacy (Crabgrass; [1]): 82%
- Control %: Max weed efficacy (Crabgrass; [2]): 81%
- Control %: Max weed efficacy (Broadleaf dock; [1]): 92%
- Control %: Max weed efficacy (Broadleaf dock; [2]): 99%
